In one assay the test system is KARPAS-422 cells. Kind of assay: Cell proliferation analysis, KARPAS-422, 13 days, CellTiter-Glo. The settings on record: Homo sapiens, 312 h. It is filed as cell-based. The protocol: Human B-cell non-Hodgkin lymphoma cells, KARPAS-422 S, were cultured in a culture flask using standard cell culture conditions. The medium contained 15% fetal bovine serum (FBS, Invitrogen, product number 10099-141) and 1% penicillin/streptomycin solution (P/S) RPMI-1640 (Invitrogen, product number 11875), and the culture flask was placed and cultured in a sterile incubator at the temperature of 37° C. and […] with a relative humidity of […] To detect the effect of PRC2 inhibitors on cell proliferation, cells in exponential growth phase were taken and seeded into a 96-well plate (Corning, product number 3904) at a density of 1×10^4 cells/well, and 100 μL of the medium was added into each well. Subsequently, the compounds at different concentrations disclosed in the present disclosure were added into the wells where cells had already been seeded (9 concentration gradients were provided for each compound, with the highest detection concentration at 10 μM, 3-fold gradient dilution) and two replicates in parallel were provided for each treatment concentration. DMSO was at a final concentration of 0.5%. Afterwards, viable cell numbers were determined using Vi-CELL (Beckman Coulter) every 3-4 days. Cells counted were seeded into a new 96-well plate at the same density (1×10^4 cells/well) each time. The wells were supplemented with a fresh medium to 100 μL and at the same time, compounds at different concentrations were added. The cells were cultured to day 13. 100 μL of CellTiter-Glo (CellTiter-GloCellTiter-GloCellTiter-GloCTG) (Promega, product number G7573) was added into each well. The plate was placed in the dark at room temperature for 10-20 minutes and the luminescence signal was read using SpectraMax i3× (Molecular Devices).

Assay [1] concerns trimethylation level of histone H3K27 in G401 cells. Kind of assay: ELISA (H3K27 trimethylation) analysis in G401 cells. The format is cell-based. Conditions: Homo sapiens, G-401, 72 hours, H3K27me3 standardized to H3. The protocol:
3-fold series dilution with DMSO was carried out on the representative compounds of the present disclosure; and 10 concentration gradients were detected for each compound, with the highest detection concentration of 10 μM. The compounds were diluted 200-fold into the G401 cells cultured in a 96-well plate (DMSO at a final concentration of 0.5%). After the cells, administered with the compound, were cultured for 72 hours, the trimethylation level of the histone H3K27 was detected using the ELISA method.
Extraction of the histone: in a 96-well plate, the compound-treated cells were washed three times with 1×PBS (10×PBS buffer (80 g NaCl (Sigma, product number S3014), 2 g KCl (Sigma, product number 60128), 14.4 g Na2HPO4 (Sigma, product number S5136), and 2.4 g KH2PO4 (Sigma, product number P9791) in 1 L of water, adjusting the pH to 7.4)). 100 μL of 0.4 N HCl was added into each well. The plate was placed at 4° C. and gently agitated for 2 hours to lyse the cells. The cell lysate was then neutralized with 80 μL of neutralization buffer (0.5 M disodium hydrogen phosphate, pH 12.5, 2.5 mM DTT; 1% cocktail (Sigma, product number P8340)) (the cell lysate and the neutralization buffer were thoroughly mixed to uniformity).
ELISA detection method: the cell lysate was transferred in parallel to two 384-well detection plates (PerkinElmer, OptiPlate-384HB, product number 6007290), wherein one of the plates was used to detect the H3K27 trimethylation level and the other plate was used to determine the level of H3. PBS was used to adjust the final volume to 50 μL/well. The plates were coated at 4° C. overnight. On the following day, the solution inside the wells was discarded and the plates were washed 5 times with TBST buffer (1×TBS (10×TBS: 24.2 g Tris (Sigma, product number T6066), 80 g NaCl (Sigma, product number S3014) in 1 L of water, adjusting the pH with HCl to 7.6), 0.1% Tween-20) and dried on an absorbent paper by inversion. 70 μL of blocking buffer (TBST, 5% BSA) was added into the coated reaction wells and the plates were incubated at room temperature for 1 hour. The blocking buffer was discarded and primary antibodies were added (30 μL/well). The desired primary antibodies were all diluted with a blocking buffer and the dilution factor was as follows: anti-H3K27me3 antibody (Cell Signaling Technology, product number 9733), 1:2000 dilution; anti-H3 antibody (Cell Signaling Technology, product number 4499), 1:10000 dilution. After the primary antibodies were added, the plates were placed at room temperature and incubated for 1 hour. After the plates were washed with TBST 5 times, the plates were dried by inversion. A secondary antibody (30 μL/well) was added to each of the reaction wells and the plates were incubated at room temperature for 1 hour. The secondary antibody (anti-rabbit antibody (Jackson ImmunoResearch, product number 111-035-003)) was diluted 2000-fold with a blocking buffer before use. After 1 hour, the plates were washed with TBST and dried by inversion. 30 μL of ECL substrate (Pierce, product number 34080) was added into each well and centrifuged at 2000 rpm for 30 seconds. The signal of each sample was detected using SpectraMax (Molecular Devices). Data processing: H3K27 methylation readings were first standardlized using H3 signals and 0.5% DMSO-treated samples was used as the control to calculate the inhibition percentage of the compounds. Data were fit to obtain Dose-Response curves using the GraphPad prism 5 program and the IC50 values of the test compounds were obtained.

The results in this text go back to US12583870B2, “Azaheteroaryl compound and application thereof” (SHANGHAI BLUERAY BIOPHARMA CO., LTD., priority 2019, dated 2026).

Regarding `CN(C)CCN(C)Cc1ccc(-c2cnc(NCc3c(F)ccc4c3CCO4)n3cnnc23)c2ncnn12` [N1-((8-(5-(((5-fluoro-2,3-dihydrobenzofuran-4-yl)methyl)amino)-[1,2,4]triazolo[4,3-c]pyrimidin-8-yl)-[1,2,4]triazolo[1,5-a]pyridin-5-yl)methyl)-N1,N2,N2-trimethylethane-1,2-diamine], the figures for the IC50 (in the assay with KARPAS-422 cells; in assay [1]) were 0.0035 µM and 0.0112 µM, respectively.

`CN(C)c1ccc(-c2cnc(NCc3c(F)ccc4c3CCO4)n3cnnc23)c2ncc(C#N)n12` [5-(dimethylamino)-8-(5-(((5-fluoro-2,3-dihydrobenzofuran-4-yl)methyl)amino)-[1,2,4]triazolo[4,3-c]pyrimidin-8-yl)imidazo[1,2-a]pyridine-3-carbonitrile]: the IC50 (with KARPAS-422 cells; in assay [1]) was 0.0009 µM each time.

On to `Cc1ccc(-c2cnc(NCc3c(F)ccc4c3[C@H]3C[C@H]3O4)n3cnnc23)c2nccn12` [N-(((1aR,6bR)-5-fluoro-1a,6b-dihydro-1H-cyclopropa[b]benzofuran-6-yl)methyl)-8-(5-methylimidazo[1,2-a]pyridin-8-yl)-[1,2,4]triazolo[4,3-c]pyrimidin-5-amine], for which the IC50 came to 0.0009 µM in the assay on KARPAS-422 cells and 0.0012 µM in assay [1].

Take `Fc1ccc2c(c1CNc1ncc(-c3ccc(Cn4ccnc4)n4ncnc34)c3nncn13)CCO2` [8-(5-((1H-imidazol-1-yl)methyl)-[1,2,4]triazolo[1,5-a]pyridin-8-yl)-N-((5-fluoro-2,3-dihydrobenzofuran-4-yl)methyl)-[1,2,4]triazolo[4,3-c]pyrimidin-5-amine]: the IC50 stood at 0.0009 µM in the assay with KARPAS-422 cells and 0.0006 µM in assay [1].

For `CN(C)c1nc2c(-c3cnc(NCc4c(F)ccc5c4CCO5)n4cnnc34)cccn2n1` [8-(2-(dimethylamino)-[1,2,4]triazolo[1,5-a]pyridin-8-yl)-N-((5-fluoro-2,3-dihydrobenzofuran-4-yl)methyl)-[1,2,4]triazolo[4,3-c]pyrimidin-5-amine], the IC50 with KARPAS-422 cells came to 0.0054 µM; in assay [1], 0.0084 µM.

Consider `Cc1ccc(-c2cnc(NCc3c(F)ccc4c3CCO4)n3cnnc23)c2ncnn12` [N-((5-fluoro-2,3-dihydrobenzofuran-4-yl)methyl)-8-(5-methyl-[1,2,4]triazolo[1,5-a]pyridin-8-yl)-[1,2,4]triazolo[4,3-c]pyrimidin-5-amine], for which the IC50 in the assay on KARPAS-422 cells is 0.0018 µM; in assay [1] it was 0.0017 µM.

Take `Fc1ccc2c(c1CNc1ncc(-c3cccc4nsnc34)c3nncn13)CCO2` [8-(benzo[c][1,2,5]thiadiazol-4-yl)-N-((5-fluoro-2,3-dihydrobenzofuran-4-yl)methyl)-[1,2,4]triazolo[4,3-c]pyrimidin-5-amine]: the figures for the concentration for half-maximal inhibition (IC50) (in the assay with KARPAS-422 cells; in assay [1]) were 0.014 µM and 0.0023 µM, respectively.

In the case of `Fc1ccc2c(c1CNc1ncc(-c3cccc4scnc34)c3nncn13)CCO2` [8-(benzo[d]thiazol-4-yl)-N-((5-fluoro-2,3-dihydrobenzofuran-4-yl)methyl)-[1,2,4]triazolo[4,3-c]pyrimidin-5-amine], the IC50 in the assay with KARPAS-422 cells was 0.0036 µM; in assay [1], 0.0047 µM.

For `CN(C)c1nc2c(-c3cnc(NCc4c(F)ccc5c4CCO5)n4cnnc34)cc(F)cn2n1` [8-(2-(dimethylamino)-6-fluoro-[1,2,4]triazolo[1,5-a]pyridin-8-yl)-N-((5-fluoro-2,3-dihydrobenzofuran-4-yl)methyl)-[1,2,4]triazolo[4,3-c]pyrimidin-5-amine], the IC50 came to 0.0244 µM in the assay on KARPAS-422 cells and 0.0018 µM in assay [1].

On to `Fc1ccc2c(c1CNc1ncc(-c3ccc(N4CCCC4)n4ncnc34)c3nncn13)CCO2` [N-((5-fluoro-2,3-dihydrobenzofuran-4-yl)methyl)-8-(5-(pyrrolidin-1-yl)-[1,2,4]triazolo[1,5-a]pyridin-8-yl)-[1,2,4]triazolo[4,3-c]pyrimidin-5-amine], for which the IC50 was found to be 0.0032 µM in the assay on KARPAS-422 cells and 0.0027 µM in assay [1].

Turning to `Fc1ccc2c(c1CNc1ncc(-c3cccn4ncnc34)c3nncn13)CCO2` [8-([1,2,4]triazolo[1,5-a]pyridin-8-yl)-N-((5-fluoro-2,3-dihydrobenzofuran-4-yl)methyl)-[1,2,4]triazolo[4,3-c]pyrimidin-5-amine], the IC50 in the assay on KARPAS-422 cells stood at 0.0014 µM; in assay [1], 0.0009 µM.

For the compound `Fc1ccc2c(c1CNc1ncc(-c3ccc(N4CCC(N5CCOCC5)CC4)n4ncnc34)c3nncn13)CCO2` [N-((5-fluoro-2,3-dihydrobenzofuran-4-yl)methyl)-8-(5-(4-morpholinopiperidin-1-yl)-[1,2,4]triazolo[1,5-a]pyridin-8-yl)-[1,2,4]triazolo[4,3-c]pyrimidin-5-amine], the IC50 in the assay with KARPAS-422 cells was determined as 0.0008 µM; in assay [1], 0.0011 µM.

Take `N#Cc1cnc2c(-c3cnc(NCc4c(F)ccc5c4CCO5)n4cnnc34)cc(F)cn12` [6-fluoro-8-(5-(((5-fluoro-2,3-dihydrobenzofuran-4-yl)methyl)amino)-[1,2,4]triazolo[4,3-c]pyrimidin-8-yl)imidazo[1,2-a]pyridine-3-carbonitrile]: the results for the IC50 (in the assay with KARPAS-422 cells; in assay [1]) were 0.0083 µM and 0.0089 µM, respectively.

Consider `Cc1ccc(-c2cnc(NCc3c(F)ccc4c3CCO4)n3cnnc23)c2ncc(C(N)=O)n12` [8-(5-(((5-fluoro-2,3-dihydrobenzofuran-4-yl)methyl)amino)-[1,2,4]triazolo[4,3-c]pyrimidin-8-yl)-5-methylimidazo[1,2-a]pyridine-3-carboxamide], for which the results for the IC50 (in the assay on KARPAS-422 cells; in assay [1]) were 0.0022 µM and 0.0035 µM, respectively.

As for `CN(C)Cc1ccc(-c2cnc(NCc3c(F)ccc4c3CCO4)n3cnnc23)c2ncc(C#N)n12` [5-((dimethylamino)methyl)-8-(5-(((5-fluoro-2,3-dihydrobenzofuran-4-yl)methyl)amino)-[1,2,4]triazolo[4,3-c]pyrimidin-8-yl)imidazo[1,2-a]pyridine-3-carbonitrile], the IC50 with KARPAS-422 cells is 0.0005 µM; in assay [1], 0.0007 µM.

`Cc1ccc(-c2cnc(NCc3c(F)ccc4c3CCO4)n3cnnc23)c2ncc(C(=O)N(C)C)n12` [8-(5-(((5-fluoro-2,3-dihydrobenzofuran-4-yl)methyl)amino)-[1,2,4]triazolo[4,3-c]pyrimidin-8-yl)-N,N,5-trimethylimidazo[1,2-a]pyridine-3-carboxamide]: the IC50 with KARPAS-422 cells came to 0.0012 µM; in assay [1], 0.0014 µM.

For `CN1CCN(c2ccc(-c3cnc(NCc4c(F)ccc5c4CCO5)n4cnnc34)c3ncnn23)CC1` [N-((5-fluoro-2,3-dihydrobenzofuran-4-yl)methyl)-8-(5-(4-methylpiperazin-1-yl)-[1,2,4]triazolo[1,5-a]pyridin-8-yl)-[1,2,4]triazolo[4,3-c]pyrimidin-5-amine], the IC50 in the assay on KARPAS-422 cells stood at 0.0007 µM; in assay [1] it was 0.0041 µM.
